These are literature values, as cited in US20240189234A1, “SILICON PARTICLES FOR DRUG DELIVERY” (NACAMED AS, priority 2021, published 2024).

For this data set the following is noted: calculated log P values from Foye's Principles of Medicinal Chemistry.

For `CCCCCCC(=O)OCCN1CCN(CCCN2c3ccccc3Sc3ccc(C(F)(F)F)cc32)CC1` [fluphenazine enanthate], the “log P” value is reported as 7.29.

Turning to `CCN(CC)CCN1C(=O)CN=C(c2ccccc2F)c2cc(Cl)ccc21` [flurazepam], the “log P” value is 4.84.

In the case of `CC(C(=O)O)c1ccc(-c2ccccc2)c(F)c1` (stereo not shown) [flurbiprofen], the “log P” value is 3.66.

With `CC(C)C(=O)Nc1ccc([N+](=O)[O-])c(C(F)(F)F)c1` [flutamide], the “log P” value is listed as 3.52.

With `CC(=O)O[C@H]1C[C@@]2(C)[C@@H](C[C@@H](O)[C@H]3[C@@]4(C)CC[C@@H](O)[C@@H](C)[C@@H]4CC[C@@]32C)/C1=C(\CCC=C(C)C)C(=O)O` [fusidic acid], the “log P” value is listed as 5.76.

On to `COc1ccc(Cl)cc1C(=O)NCCc1ccc(S(=O)(=O)NC(=O)NC2CCCCC2)cc1` [glibenclamide], for which the “log P” value is recorded as 3.08.

Take `O=C(CCCN1CCC(O)(c2ccc(Cl)cc2)CC1)c1ccc(F)cc1` [haloperidol]: the “log P” value is listed as 3.76.

Take `CC(CNC1CCCCC1)OC(=O)c1ccccc1` (stereo not shown) [hexylcaine]: the “log P” value is on record as 3.65.

Regarding `CCN(CC)CCNc1ccc(CO)c2sc3ccccc3c(=O)c12` [hycanthone], the “log P” value is listed as 3.81.

Turning to `CCc1cc2c(cc1CC)CC(NC[C@H](O)c1ccc(O)c3[nH]c(=O)ccc13)C2` [indacaterol], the “log P” value was 3.88.

On to `CC(=O)N(CC(C)C(=O)O)c1c(I)cc(I)c(N)c1I` (stereo not shown) [iocetamic acid], for which the “log P” value is 4.57.

`O=C(CCCCC(=O)Nc1c(I)cc(I)c(C(=O)O)c1I)Nc1c(I)cc(I)c(C(=O)O)c1I` [iodipamide]: the “log P” value was 5.10.

As to `CCC(Cc1c(I)cc(I)c(N)c1I)C(=O)O` (stereo not shown) [iopanoic acid], the “log P” value was 4.65.

On to `CCCCC1=NC2(CCCC2)C(=O)N1Cc1ccc(-c2ccccc2-c2nnn[nH]2)cc1` [irbesartan], for which the “log P” value is listed as 5.25.

On to `CNC1(c2ccccc2Cl)CCCCC1=O` (stereo not shown) [ketamine], for which the “log P” value is listed as 3.01.

In the case of `C=CCN1CC[C@]23CCCC[C@H]2[C@H]1Cc1ccc(O)cc13` [levallorphan], the “log P” value was 3.85.

In the case of `CN1CC[C@]23CCCC[C@H]2[C@H]1Cc1ccc(O)cc13` [leverphanol], the “log P” value was 3.26.

With `N[C@@H](Cc1cc(I)c(Oc2ccc(O)c(I)c2)c(I)c1)C(=O)O` [liothyronine], the “log P” value is 3.91.

On to `CN(C)C(=O)C(CCN1CCC(O)(c2ccc(Cl)cc2)CC1)(c1ccccc1)c1ccccc1` [loperamide], for which the “log P” value is 4.15.

For the compound `CCCCc1nc(Cl)c(CO)n1Cc1ccc(-c2ccccc2-c2nn[nH]n2)cc1` [losartan], the “log P” value is reported as 3.46.

For `CNCCCC12CCC(c3ccccc31)c1ccccc12` [maprotiline], the lipophilicity (log P) is 4.36.

Turning to `Cc1ccc(Cl)c(Nc2ccccc2C(=O)O)c1Cl` [meclofenamic acid], the “log P” value is 5.44.

For `CN1CCN=C(c2ccccc2)c2cc(Cl)ccc21` [medazepam], the “log P” value is listed as 3.89.

As for `Cc1cccc(Nc2ccccc2C(=O)O)c1C` [mefenamic acid], the “log P” value is given as 4.83.

`CN1CCCC(CN2c3ccccc3Sc3ccccc32)C1` (stereo not shown) [mepazine]: the “log P” value was 5.04.

Regarding `CN1CCC(CN2c3ccccc3Sc3ccccc32)C1` (stereo not shown) [methdilazine], the “log P” value is given as 4.64.

`COc1ccc2c(c1)N(C[C@H](C)CN(C)C)c1ccccc1S2` [methotrimeprazine]: the “log P” value was 4.94.

Consider `Cc1ccccc1N1C(=O)c2cc(S(N)(=O)=O)c(Cl)cc2NC1C` (stereo not shown) [metolazone], for which the “log P” value is recorded as 3.16.

For the compound `Clc1ccc(COC(Cn2ccnc2)c2ccc(Cl)cc2Cl)c(Cl)c1` (stereo not shown) [miconazole], the “log P” value was 4.97.

For `Cc1ncc2n1-c1ccc(Cl)cc1C(c1ccccc1F)=NC2` [midazolam], the “log P” value is recorded as 3.80.

Take `CCCCCCC(C)(C)c1cc(O)c2c(c1)OC(C)(C)C1CCC(=O)CC21` (stereo not shown) [nabilone]: the “log P” value is given as 7.25.

As for `OC(CNCC(O)C1CCc2cc(F)ccc2O1)C1CCc2cc(F)ccc2O1` (stereo not shown) [nebivolol], the log partition coefficient (log P) is on record as 4.08.

As to `Cc1c(O)cccc1C(=O)N[C@@H](CSc1ccccc1)[C@H](O)CN1C[C@H]2CCCC[C@H]2C[C@H]1C(=O)NC(C)(C)C` [nelfinavir], the “log P” value is 7.28.

`CNCCC=C1c2ccccc2CCc2ccccc21` [nortriptyline]: the lipophilicity (log P) was 3.97.

As for `CO[C@@H]1[C@@H](OC(N)=O)[C@@H](O)[C@H](Oc2ccc3c(O)c(NC(=O)c4ccc(O)c(CC=C(C)C)c4)c(=O)oc3c2C)OC1(C)C` [novobiocin], the log partition coefficient (log P) is 3.74.

On to `Cc1ccccc1C(OCCN(C)C)c1ccccc1` (stereo not shown) [orphenadrine], for which the “log P” value is reported as 3.33.

On to `CCN(CC)CCCC(C)Nc1cc(OC)cc2cccnc12` (stereo not shown) [pamaquine], for which the lipophilicity (log P) is given as 4.38.

With `CC(C)(C)NC[C@H](O)COc1ccccc1C1CCCC1` [penbutolol], the lipophilicity (log P) is reported as 4.02.

Turning to `CC(C)=CCN1CCC2(C)c3cc(O)ccc3CC1C2C` (stereo not shown) [pentazocine], the “log P” value is listed as 4.15.

Consider `CCCN1C[C@H](CSC)C[C@@H]2c3cccc4[nH]cc(c34)C[C@H]21` [pergolide], for which the “log P” value is reported as 3.90.

As for `C1CCC(C(CC2CCCCN2)C2CCCCC2)CC1` (stereo not shown) [perhexilene], the “log P” value was 6.46.

On to `OCCN1CCN(CCCN2c3ccccc3Sc3ccc(Cl)cc32)CC1` [perphenazine], for which the lipophilicity (log P) was 3.94.

With `c1ccc(C2(N3CCCCC3)CCCCC2)cc1` [phencyclidine], the “log P” value is 4.25.

For `CN1CCC2=C(C1)C(c1ccccc1)c1ccccc12` (stereo not shown) [phenindamine], the “log P” value was 3.81.

In the case of `O=C1c2ccccc2C(=O)C1c1ccccc1` [phenindione], the “log P” value is listed as 3.19.

With `CC(COc1ccccc1)N(CCCl)Cc1ccccc1` (stereo not shown) [phenoxybenzamine], the “log P” value is reported as 3.69.

Take `Cc1ccc(N(CC2=NCCN2)c2cccc(O)c2)cc1` [phentolamine]: the lipophilicity (log P) is 4.08.

Turning to `CN(C)CCOc1ccccc1Cc1ccccc1` [phenyltoloxamine], the “log P” value is reported as 3.46.

Consider `O=c1[nH]c2ccccc2n1C1CCN(CCCC(c2ccc(F)cc2)c2ccc(F)cc2)CC1` [pimozide], for which the “log P” value was 5.57.

As for `OC(c1ccccc1)(c1ccccc1)C1CCCCN1` (stereo not shown) [pipradrol], the log partition coefficient (log P) is reported as 3.61.

With `CC(C)(C)C(=O)OCOC(=O)[C@@H]1N2C(=O)[C@@H](NC(=O)[C@H](N)c3ccccc3)[C@H]2SC1(C)C` [pivampicillin], the “log P” value was 3.88.

In the case of `CC(=O)Oc1cc2c(s1)CCN(C(C(=O)C1CC1)c1ccccc1F)C2` (stereo not shown) [prasugel], the “log P” value is given as 4.31.

On to `O=C1CN=C(c2ccccc2)c2cc(Cl)ccc2N1CC1CC1` [prazepam], for which the “log P” value is given as 3.70.

In the case of `CN1CCN(CCCN2c3ccccc3Sc3ccc(Cl)cc32)CC1` [prochlorperazine], the “log P” value was 4.65.

As for `CN(C)CCCN1c2ccccc2Sc2ccccc21` [promazine], the “log P” value is recorded as 4.69.

As to `CC(CN1c2ccccc2Sc2ccccc21)N(C)C` (stereo not shown) [promethazine], the “log P” value is recorded as 4.89.

Turning to `CCC(=O)O[C@](Cc1ccccc1)(c1ccccc1)[C@H](C)CN(C)C` [propoxyphene], the “log P” value was 4.10.

Regarding `c1ccc2c(c1)Sc1ccccc1N2CCN1CCCC1` [pyrathiazine], the lipophilicity (log P) was 4.15.

As to `Clc1ccc(C/C(=C\CN2CCCC2)c2ccccc2)cc1` [pyrrobutamine], the “log P” value is 4.57.

As for `CCN(CC)CCCC(C)Nc1c2ccc(Cl)cc2nc2ccc(OC)cc12` (stereo not shown) [quinacrine], the “log P” value was 5.59.

On to `COC(=O)[C@H]1[C@H]2C[C@@H]3c4[nH]c5cc(OC)ccc5c4CCN3C[C@H]2C[C@@H](OC(=O)c2cc(OC)c(OC)c(OC)c2)[C@@H]1OC` [reserpine], for which the “log P” value is 3.65.

With `OCc1cc(C(O)CNCCCCCCOCCCCc2ccccc2)ccc1O` (stereo not shown) [salmeterol], the “log P” value is recorded as 3.71.

`O=C(Oc1ccccc1C(=O)O)c1ccccc1O` [salsalate]: the “log P” value is 3.29.

Regarding `CN[C@H]1CC[C@@H](c2ccc(Cl)c(Cl)c2)c2ccccc21` [sertraline], the “log P” value is reported as 5.08.

Consider `O=C(CCCN1CCC2(CC1)C(=O)NCN2c1ccccc1)c1ccc(F)cc1` [spiperone], for which the “log P” value was 3.25.

For the compound `O=C(O)c1cc(/N=N/c2ccc(S(=O)(=O)Nc3ccccn3)cc2)ccc1O` [sulfasalazine], the “log P” value is on record as 3.05.

Regarding `CCCCNc1ccc(C(=O)OCCN(C)C)cc1` [tetracaine], the “log P” value is listed as 3.75.

`CCCCCc1cc(O)c2c(c1)OC(C)(C)[C@@H]1CCC(C)=C[C@@H]21` [tetrahydrocannabinol]: the lipophilicity (log P) was 6.84.

Turning to `CC(=O)OCCN1CCN(CCCN2c3ccccc3Sc3ccc(Cl)cc32)CC1` [thiopropazate], the “log P” value was 4.76.

Regarding `CSc1ccc2c(c1)N(CCC1CCCCN1C)c1ccccc1S2` (stereo not shown) [thioridazine], the “log P” value is 5.90.

Consider `Cc1ccsc1C(=CCCN1CCC[C@@H](C(=O)O)C1)c1sccc1C` [tiagabine], for which the “log P” value is recorded as 4.03.

With `O=C(O)COc1ccc(C(=O)c2cccs2)c(Cl)c1Cl` [ticrynfen], the “log P” value is on record as 3.05.

`Cc1ccc(O)c([C@H](CCN(C(C)C)C(C)C)c2ccccc2)c1` [tolterodine]: the “log P” value is listed as 5.23.

As for `CN1CCN(CCCN2c3ccccc3Sc3ccc(C(F)(F)F)cc32)CC1` [trifluoperazine], the “log P” value is reported as 4.62.

With `CN(C)CCCN1c2ccccc2Sc2ccc(C(F)(F)F)cc21` [triflupromazine], the “log P” value is 5.16.

With `CC(CN(C)C)CN1c2ccccc2Sc2ccccc21` (stereo not shown) [trimeprazine], the “log P” value is 5.04.

Turning to `CC(CN(C)C)CN1c2ccccc2CCc2ccccc21` (stereo not shown) [trimipramine], the “log P” value is reported as 4.71.

Turning to `Cc1ccc(/C(=C\CN2CCCC2)c2ccccn2)cc1` [triprolidine], the “log P” value is 3.25.

As to `CO[C@H]1C[C@H](O[C@H]2[C@H](C)[C@@H](O[C@@H]3O[C@H](C)C[C@H](N(C)C)[C@H]3OC(C)=O)[C@@H](C)C[C@@]3(CO3)C(=O)[C@H](C)[C@@H](OC(C)=O)[C@@H](C)[C@@H](C)OC(=O)[C@@H]2C)O[C@@H](C)[C@@H]1OC(C)=O` [troleandomycin], the “log P” value is given as 3.46.

For orientation: log P means a log measure of how a compound divides between an organic and an aqueous phase.
